These are literature values, as cited in patent publication US8999893B2, “Stabilized oil-in-water emulsions including meptyl dinocap” (Dow AgroSciences LLC, priority 2008, dated 2015).

Turning to “2,6-dinitro-4-octylphenyl crotonates and 2,4-dinitro-6-octylphenyl crotonates in which ‘octyl’ is a mixture of 1-methylheptyl, 1-ethylhexyl and 1-propylpentyl groups [Meptyl Dinocap]”, the solubility in water was 0.151 µg/mL.
